Experimental data from US10201559B2, “Compositions of selenoorganic compounds and methods of use thereof” (Alltech, Inc., priority 2014, dated 2019).
Entries after “also recorded” stand apart in the source; their conditions may differ.

Experiments:
total FOXO = assay: Western blot, total FOXO in IMR-32 cells; format: cell-based, human; conditions: 150 ppb (of each compound)
Description: (§1) IMR-32 and AML12 cells were seeded on 6-well plates, and then treated with vehicle and various compounds for 6 and 24 hr, as described above. After treatments, cells were rinsed with ice-cold PBS, and lysed in the ice-cold RIPA buffer containing complete proteinase and phosphotase inhibitors (Themo-Fisher Scientific, Waltham, Mass.) on ice for 30 min. Cell lysates were collected using a cell scraper and transfer pipette, and then centrifuged at 12000 g for 30 min at 4° C. to remove the DNA pellet and obtain the protein extract. Protein levels in the supernatant of these cell lysates were determined using the Pierce Micro-BCA protein assay kit (Themo Scientific-Piece Biotechnology, Rockford, Ill.) according to the manufacturer's protocol.
(§2) For Western blot analysis, five micrograms of total proteins from vehicle- and compound(s)-treated cells were subjected to SDS-PAGE gel separation, and then transferred to PVDF membranes, as described previously (Reddy, Liu et al. 2008 Science). Membranes were blocked in a phosphate-buffered saline (PBS) containing 5% (w/v) of bovine serum albumin (Sigma, St. Louis, Mo.), and incubated with specific primary antibodies followed by the incubation with HRP-conjugated anti-mouse or anti-rabbit secondary antibodies (1:5000 dilution, Cell Signaling Inc.). All primary antibodies except G6PC (Santa Cruz), Actb (Li-COR, Lincoln, Nebr.), Elf2bε and pElf2bε (Abcam, Cambridge, Mass.) were purchased from Cell Signaling Inc. Positive signals on the membrane blots were detected using the Amersham's enhanced chemiluminescence Western Blotting Prime Detection reagents (GE healthcare Lifescience, Pittsburgh, Pa.). Images of these luminescence signals on the membrane blots were captured using the LI-COR Odyssey Fc Image system (Lincoln, Nebr.). […] Protein band densities in the Western blots were determined using the Li-COR Image studio software or NIH ImageJ software, and then normalized by Actb level in each sample. […]

Nicastrin [1] = assay: Real-time RT-PCR, Nicastrin in IMR-32 cells; format: cell-based, human
Description: (§3) Human IMR-32 cells were seeded on gelatinized 6-well (6.5×10^5 cells/well) or 24-well (1.3×10^5 cells/well) plates, while mouse liver AML-12 cells were cultured on uncoated 6-well (3.33×10^5 cells/well) or 24-well (6.7×10^4 cells/well) plates. Cells were treated with vehicle (control) or various compounds for 6, 24 or 48 hr. Total RNA from these cells was using Trizol (Invitrogen) according to the Manufacturer's protocol, and then incubated with DNase I to remove any potential contaminated genomic DNA. Then RNA samples were subjected to real-time PCR analysis using the Applied-Bioscience's RT kit and predesigned Taqman probes (Invitrogen), as described previously (Lan et al EMBO J 2003). Three to six samples were analyzed in each treatment group. Data were normalized by Actin B (Actb) or Glyceraldehyde Phosphate Dehydrogenase (Gapdh) levels in each sample, and are presented as mean±sem of 3-6 samples.

Gsk3b = assay: Real-time RT-PCR, Gsk3b in IMR-32 cells; format: cell-based, human
Description: as §3

pTau S400/T403/S404 = assay: Western blot, pTau S400/T403/S404 in IMR-32 cells; format: cell-based, human; conditions: 150 ppb, 24 hr
Description: as §1, §2

IMR-32 cells [2] = assay: Cell viability assay, IMR-32; format: cell-based, human; conditions: 24, 48 and 72 hr
Description: (§4) Cell viability in cultured cells was determined using Promega's CellTiter96® AQueous One Solution Cell Proliferation Assay kits, according to the Manufacturer's protocol. In brief, equal number of C2C12 (1×10^4 cells/well), AML-12 (1×10^4 cells/well) and IMR-32 (2×10^4 cells/well) were seeded on 96-well clear plates (VWR) and treated with vehicle or compounds for 24, […] and/or 72 hr. Then, cultured cells were incubated with AQueous One solution (100 ul/per well) at 37° C. for 1 hr, and the absorbance of OD490 nm in each sample was determined by the Bio-Tek microplate reader. Cell viability in culture cells were determined by the subtraction of OD490 nm in cultured cells with the OD490 nm in plain culture media (without seeding of cells). Eight samples per each treatment were examined for the above analysis. Data are presented as Mean±sem of eight samples.

total Tau = assay: Western blot, total Tau in IMR-32 cells; format: cell-based, human; conditions: 150 ppb, 24 hr
Description: as §1, §2

pElf2be = assay: Western blot, pElf2be S539 in AML-12 cells; format: cell-based, mouse; conditions: for increased phosphorylation of Elf2be: individual compounds, 6 or 24 hr
Description: as §1
(§5) For Western blot analysis, five micrograms of total proteins from vehicle- and compound(s)-treated cells were subjected to SDS-PAGE gel separation, and then transferred to PVDF membranes, as described previously (Reddy, Liu et al. 2008 Science). Membranes were blocked in a phosphate-buffered saline (PBS) containing 5% (w/v) of bovine serum albumin (Sigma, St. Louis, Mo.), and incubated with specific primary antibodies followed by the incubation with HRP-conjugated anti-mouse or anti-rabbit secondary antibodies (1:5000 dilution, Cell Signaling Inc.). All primary antibodies except G6PC (Santa Cruz), Actb (Li-COR, Lincoln, Nebr.), Elf2bε and pElf2bε (Abcam, Cambridge, Mass.) were purchased from Cell Signaling Inc. Positive signals on the membrane blots were detected using the Amersham's enhanced chemiluminescence Western Blotting Prime Detection reagents (GE healthcare Lifescience, Pittsburgh, Pa.). Images of these luminescence signals on the membrane blots were captured using the LI-COR Odyssey Fc Image system (Lincoln, Nebr.). The same membrane blot was striped and re-blotted with another antibody as described in the GE WB ECL-prime-detection protocol (GE healthcare Lifescience, Pittsburgh, Pa.). Protein band densities in the Western blots were determined using the Li-COR Image studio software or NIH ImageJ software, and then normalized by Actb level in each sample. Data are presented as mean±sem of three samples per each group.

pElf2beS539 = assay: Western blot, pElf2beS539 in IMR-32 cells; format: cell-based, human; conditions: 150 ppb
Description: as §1, §2

pFOXOs = assay: Western blot, FOXO phosphorylation (pFOXOs) in AML-12 cells treated with individual compounds; format: cell-based, mouse; conditions: 150 ppb, 6 or 24 hr
Description: as §1, §2

IMR-32 cells [3] = assay: Quantitative analysis of mitochondrial potential in IMR-32 cells; format: cell-based, human; conditions: for enhanced MT potential compared with sulfur analogs: 24 hr
Description: Similar to the above studies on AML-12 cells, the mitochondrial potential per cell in living IMR-32 cells was determined using the Bio-TeK Synergy HT Multi-Mode fluorescence microplate reader with the following modifications. To improve the attachment of IMR-32 cells to culture dishes, cell culture plates were precoated with 0.1% gelatin (Sigma, St. Louis, Mo.). 2×10^4 cells per a 96-well were seeded on gelatinized 96-well plates for the above studies. To reduce the cell dislodgment, Mitotracker orange and Hoechst 33342 fluorescent dyes (diluted in culture media) were directly added to each well after vehicle- or compound-treatments. After dye incubation, cell culture media were carefully replaced with 1× PBS for the quantitation analysis of fluorescence on the microplate reader. Eight samples per each treatment were examined for the above analysis, and the experiments were repeated at least five times. Data are presented as mean±sem of eight samples.

pFOXO4 T28 = assay: Western blot, pFOXO4 T28 in IMR-32 cells; format: cell-based, human; conditions: individual compound, 150 ppb
Description: as §1, §5

pAKT [4] = assay: Western blot, pAKT in AML-12 cells; format: cell-based, mouse; conditions: for increased phosphorylation of AKT: individual compounds, 6 or 24 hr
Description: as §1, §5

pGSK3b = assay: Western blot, pGSK3b in AML-12 cells; format: cell-based, mouse; conditions: individual compounds, 6 or 24 hr
Description: as §1, §2

AML-12 cells = assay: Cell viability assay, AML-12; format: cell-based, mouse; conditions: 48 hr
Description: as §4

Nicastrin [5] = assay: Western blot, Nicastrin in IMR-32 cells; format: cell-based, human; conditions: 150 ppb, 24 hr
Description: as §1, §2

PSEN = assay: Real-time RT-PCR, PSEN in IMR-32 cells; format: cell-based, human; conditions: individual compound
Description: as §3

pAKT [6] = assay: Western blot, pAKT in IMR-32 cells; format: cell-based, human; conditions: 150 ppb
Description: as §1, §2

[7] = continuous 48 hr single treatment

| Compound | total FOXO levels (total FOXO) | Nicastrin mRNA expression (Nicastrin [1]; 24 hr) | Gsk3b mRNA expression (Gsk3b; 6 hr) | Gsk3b mRNA expression (Gsk3b; 24 hr) | phosphorylation of Tau at S400/T403/S404 (pTau S400/T403/S404) | cell viability (OD490 nm) (IMR-32 cells [2]) | total Tau protein level (total Tau) | increased phosphorylation of Elf2be (pElf2be) | pElf2beS539 protein level (pElf2beS539) | FOXO phosphorylation (increased pFOXOs) (pFOXOs) | MT potential (IMR-32 cells [3]; 6 hr, compared to control) | enhanced MT potential compared with sulfur analogs (IMR-32 cells [3]) | MT potential (IMR-32 cells [3]; [7]) | decrease of pFoxo4 (pFOXO4 T28) levels (pFOXO4 T28; 6 hr) | increased phosphorylation of AKT (pAKT [4]) | increased phosphorylation of Gsk3b (pGSK3b) | cell viability (OD490 nm) (AML-12 cells) | Nicastrin protein level (Nicastrin [5]) | PSEN mRNA expression (PSEN; 24 hr) | pAKT protein levels (pAKT [6]) | other results |
| --- | --- | --- | --- | --- | --- | --- | --- | --- | --- | --- | --- | --- | --- | --- | --- | --- | --- | --- | --- | --- | --- |
| Nc1ncnc2c1ncn2[C@@H]1O[C@H](C[Se]CC[C@@H](N)C(=O)O)C(O)C1O (stereo partly shown) [compound D, 5′-Selenoadenosyl homocysteine] | neither the CDE combination nor the individual C, D or E treatments brought about any change | did not inhibit, but instead stimulated | did not significantly inhibit Gsk3b mRNA expression | significant increase of Gsk3b mRNA expression | had no effect on Tau phosphorylation at all tested serine/threonine residues | lack of toxic effects | had no effect | did not observed the increased phosphorylation | not affected | did not increase FOXO phosphorylation | significantly enhanced MT potential | more pronounced | did not affect MT potential | statistically significant | did not observed the increased phosphorylation | did not observed the increased phosphorylation | no toxic effects | trend towards reduced Nicastrin protein expression | did not inhibit, but instead stimulated | not visibly decreased | enhanced MT potential compared with respective sulfur analog(s) (IMR-32 cells [3]; 6 hr): more pronounced; MT potential (IMR-32 cells [3]; repeated treatments (24 hr + 24 hr), 15 and 150 ppb): significantly enhanced MT potential |
| C[Se]C[C@H]1O[C@@H](n2cnc3c(N)ncnc32)C(O)C1O (stereo in doubt) [compound C, 5′-Methylselenoadenosine] | neither the CDE combination nor the individual C, D or E treatments brought about any change | significant decrease in Nicastrin mRNA expression | significantly decreased | trend of decreased Gsk3b mRNA expression | significantly inhibited the phosphorylation of Tau at S400/T403/S404 | lack of toxic effects; also recorded: Improved neuronal cell survival | did not affect total Tau protein level | did not observed the increased phosphorylation | not affected | did not increase FOXO phosphorylation | a trend towards elevated MT potential | more pronounced | did not affect MT potential | statistically significant | did not observed the increased phosphorylation | did not observed the increased phosphorylation | no toxic effects | significant reduction | significantly reduced | not visibly decreased | Nicastrin mRNA expression (Nicastrin [1]; 6 hr): trend towards reduced Nicastrin mRNA expression; decrease of pFoxo4 (pFOXO4 T28) levels (pFOXO4 T28; 24 hr): statistically significant; PSEN mRNA expression (PSEN; 6 hr): significantly reduced |
| C[Se]CC(NC(=O)CCC(N)C(=O)O)C(=O)O (stereo not shown) [compound E, gamma-glutamyl-methylseleno-cysteine] | neither the CDE combination nor the individual C, D or E treatments brought about any change | did not inhibit, but instead stimulated | did not significantly inhibit Gsk3b mRNA expression | significant increase of Gsk3b mRNA expression | significantly down-regulated | lack of toxic effects | significantly down-regulated | did not observed the increased phosphorylation | not affected | did not increase FOXO phosphorylation | significantly enhanced MT potential | more pronounced | did not affect MT potential | statistically significant | did not observed the increased phosphorylation | did not observed the increased phosphorylation | no toxic effects | trend towards reduced Nicastrin protein expression | did not inhibit, but instead stimulated | not visibly decreased | levels of pElf2bε S539 (pElf2be; individual compound, 6 hr): slightly reduce; enhanced MT potential compared with respective sulfur analog(s) (IMR-32 cells [3]; 6 hr): more pronounced; MT potential (IMR-32 cells [3]; repeated treatments (24 hr + 24 hr), 150 ppb): significantly enhanced MT potential; decrease of pFoxo4 (pFOXO4 T28) levels (pFOXO4 T28; 24 hr): statistically significant; levels of pAKT (pAKT [4]; individual compound, 6 hr): slightly reduce |
